Results taken from patent publication US20240239788A1, “SMALL MOLECULE INHIBITORS OF KRAS G12D MUTANT” (Merck Sharp & Dohme LLC, priority 2021, published 2024).

Tests used:
[1] = biological target: KRAS G12D / Ras binding domain of C-RAF (Homo sapiens (Human), UniProt P01116, G12D); assay: RAS:RAF-RBD binding assay (cRaf), TR-FRET; details: IC50 (nM) (cRaf), biotinylated KRAS G12D, GST-C-RAF RBD
Procedure: Compounds are added to KRAS and then after a 30-minute incubation time the RAF-RBD and detection antibodies are added. Small molecule inhibitors that block the interaction of c-RAF-RBD prevent generation of a TR-FRET signal.
Biotinylated KRAS G12D protein is diluted to 20 nM in assay buffer (20 mM HEPES pH 7.5, 150 mM sodium chloride, 10 mM magnesium chloride, and 0.01% Tween20).
Each test compound (10 mM stock in DMSO) is diluted in DMSO to make a 10-point, 3-fold dilution series in a 384-well low dead volume microplate (Labcyte, catalog #LP-0200).
Each well of the assay plate receives 5 μL of Biotinylated KRAS G12D assay solution and is incubated at room temperature for 30 minutes. Each well then receives 5 μL of 100 nM GST-C-RAF RBD protein and a 1:100 dilution of both anti-GST-d2 (Cisbio catalog #61GSTDLA) and Streptavidin-Tb cryptate (Cisbio catalog #610SATLA) in assay buffer and the plate is mixed and briefly centrifuged followed by a 60 minute incubation at room temperature.
The apparent effect as a function of compound concentration is fit to a four-parameter logistic equation.

[2] = biological target: KRAS protein containing G12D mutation (Homo sapiens (Human), UniProt P01116, G12D); assay: SOS-catalyzed nucleotide exchange assay (GNE), TR-FRET; type: biochemical; details: biotinylated KRAS G12D, SOS and GTP, 60-minute incubation
Sequence of KRAS protein containing G12D mutation (P01116 other isoform, or with tags, fused parts or gaps G12D (already in the parent)): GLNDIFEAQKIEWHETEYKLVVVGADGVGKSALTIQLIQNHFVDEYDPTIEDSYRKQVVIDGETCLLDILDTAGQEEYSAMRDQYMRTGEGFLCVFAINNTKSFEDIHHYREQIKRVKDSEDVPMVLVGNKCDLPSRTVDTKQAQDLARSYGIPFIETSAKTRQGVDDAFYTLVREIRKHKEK
Procedure: Compounds are added to this complex and then after a 60-minute incubation time the mixture is treated with SOS and unlabeled GTP. Small molecule inhibitors stabilize the Bodipy-GDP complex whereas the untreated protein rapidly exchanges Bodipy-GDP for unlabeled GTP resulting in reduced TR-FRET signal.
This solution is referred to as biotinylated KRAS G12D stock solution.

[3] = system: AsPC-1 cells containing homozygous KRAS-G12D activating mutation; assay: Cellular phospho-ERK assay (Examples 1a-106); type: cell-based; details: Homo sapiens, ASPC1, 2 h, AsPC-1 cells, 2 hours, ratio of p-Erk vs total Erk; read-out: IC50 (nM) pERK (Cell)
Description: 5% CO? overnight. […] Assay plates were read on a EnVision Multimode Plate Reader (PerkinElmer) and the ratio of p-Erk vs total Erk in each well was used as the final readout.

Sequence of KRAS G12D / Ras binding domain of C-RAF (P01116 other isoform, or with tags, fused parts or gaps G12D (already in the parent)): as above

Row | Compound | IC50 [1] | IC50 [2] | IC50 [3]
1 | CC[C@H]1N[C@H]2CC[C@@H]1N(c1nc(OCC3(CN(C)C)CC3)nc3c(F)c(-c4cc(O)cc5ccccc45)c(Cl)cc13)C2 [Example 39, 4-(6-chloro-2-((1-((dimethylamino)methyl)cyclopropyl)methoxy)-4-((1S,4S,6R)-6-ethyl-2,5-diazabicyclo[2.2.2]octan-2-yl)-8-fluoroquinazolin-7-yl)naphthalen-2-ol] | 4670 nM | 46.7 nM | 3310 nM
2 | CN(C)CC1(COc2nc(N3CC4CCC(C3)N4)c3cc(Cl)c(-c4cc(O)ccc4[Si](C)(C)C)c(F)c3n2)CC1 [Example 45, 3-(4-(3,8-diazabicyclo[3.2.1]octan-3-yl)-6-chloro-2-((1-((dimethylamino)methyl)cyclopropyl)methoxy)-8-fluoroquinazolin-7-yl)-4-(trimethylsilyl)phenol] | 31600 nM | 376 nM | 5470 nM
3 | Cc1cc(O)cc(-c2c(F)cc3c(N4CC5CCC(C4)N5)nc(OCC4(CN5CCOCC5)CC4)nc3c2F)c1SC(F)(F)F [Example 49, 3-(4-(3,8-diazabicyclo[3.2.1]octan-3-yl)-6,8-difluoro-2-((1-(morpholinomethyl)cyclopropyl)methoxy)quinazolin-7-yl)-5-methyl-4-((trifluoromethyl)thio)phenol] | 24700 nM | 184 nM | 4990 nM
4 | Nc1ccc2c(F)ccc(-c3c(Cl)cc4c(N5CC6CCC(C5)N6)nc(OCC5(CN6CCOCC6)CC5)nc4c3F)c2n1 [Example 52, 8-(4-(3,8-diazabicyclo[3.2.1]octan-3-yl)-6-chloro-8-fluoro-2-((1-(morpholinomethyl)cyclopropyl)methoxy)quinazolin-7-yl)-5-fluoroquinolin-2-amine] | 3820 nM | 132 nM | 2560 nM
5 | CN(C)CC1(COc2nc(N3CC4CCC(C3)N4)c3cc(Cl)c(-c4cc(O)c(F)c5ccccc45)c(F)c3n2)CC1 [Example 57, 4-(4-(3,8-diazabicyclo[3.2.1]octan-3-yl)-6-chloro-2-((1-((dimethylamino)methyl)cyclopropyl)methoxy)-8-fluoroquinazolin-7-yl)-1-fluoronaphthalen-2-ol] | 31500 nM | 404 nM | 6850 nM
6 | Cc1c(Cl)cc2[nH]ncc2c1-c1c(F)cc2c(N3CC4CCC(C3)N4)nc(OCC3(CN(C)C)CC3)nc2c1F [Example 58, 1-(1-(((4-(3,8-diazabicyclo[3.2.1]octan-3-yl)-7-(6-chloro-5-methyl-1H-indazol-4-yl)-6,8-difluoroquinazolin-2-yl)oxy)methyl)cyclopropyl)-N,N-dimethylmethanamine] | 45300 nM | 256 nM | 5900 nM
7 | Nc1nc2c(-c3c(F)cc4c(N5CC6CCC(C5)N6)nc(OCC5(CN6CC[C@@H](F)C6)CC5)nc4c3F)ccc(F)c2s1 [Example 61] | 3350 nM | 38.7 nM | 7580 nM
8 | Nc1nc2c(-c3c(Cl)cc4c(N5CC6CCC(C5)N6)nc(OCC5(CN6CCOCC6)CC5)nc4c3F)ccc(F)c2s1 [Example 62, 4-(4-(3,8-diazabicyclo[3.2.1]octan-3-yl)-6-chloro-8-fluoro-2-((1-(morpholinomethyl)cyclopropyl)methoxy)quinazolin-7-yl)-7-fluorobenzo[d]thiazol-2-amine] | 334 nM | 3.83 nM | 1860 nM
9 | Cc1cc2[nH]ncc2c(-c2c(F)cc3c(N4C[C@H]5CC[C@@H](C4)N5)nc(OCC4(CN(C)C)CC4)nc3c2F)c1Cl [Example 65, 1-(1-(((4-((1R,5S)-3,8-diazabicyclo[3.2.1]octan-3-yl)-7-(5-chloro-6-methyl-1H-indazol-4-yl)-6,8-difluoroquinazolin-2-yl)oxy)methyl)cyclopropyl)-N,N-dimethylmethanamine] | 45700 nM | 272 nM | 2840 nM
